The text below walks through data of patent US6861448B2, “NAD synthetase inhibitors and uses thereof” (priority 1998, dated 2005).

Structures are written as SMILES. Converted amounts (≈) assume the structure as drawn. Structures can show the parent of a compound that is named as a salt. Where two headings read alike, the source gives them in different places. Bounds are passed on as bounds.

In one data set the test system is E. coli. Put plainly: MIC test (NCCLS broth dilution), growth inhibition. It counts as cell-based. The settings on record: Escherichia coli. The protocol:
(§1) Antimicrobial Testing (P. aeruginosa, E. coli, B. subtilis, S. aureus, S. aureus (MCR), A. niger and M. flavescens.)
(§2) The test compounds were solubilized, diluted, and pipetted in duplicate into 10 mL sterile culture tubes and dried under vacuum.
(§3) Challenge organisms, specified were grown overnight at 37° C. in the appropriate medium (i.e., Mueller-Hinton Broth). These pure broth cultures were diluted 1:1,000 and 2.0 mL were added to the test compound tubes.
(§4) Appropriate media controls, challenge organism viability controls, and antibiotic control dilutions (i.e., ampicillin and nystatin), were prepared in the same manner as the test compounds and run against the challenge organisms.
For orientation: Dilution methods test growth across graded concentrations, often in twofold steps.

For a further data set, the system named is P aeruginosa. Put plainly: MIC test (NCCLS broth dilution), growth inhibition. The format is cell-based. The note with it: Pseudomonas aeruginosa, read-out: Potency to inhibit growth, P aeruginosa (MIC). The method, then: as §1, §2, §3, §4
A further data set has as its system C. albicans. Kind of data set: MIC test, fungal growth inhibition. The format is cell-based. The settings on record: Candida albicans, in vitro; read-out: Potency to inhibit growth, C. albicans (MIC). The protocol: (§5) The MIC test procedures conformed to the present protocol from the National Committee for Clinical Laboratory Standards (NCCLS), and were designed to provide basic antimicrobial data on compounds based on the MIC of the active component.
as §2, §3, §4

The subject of another data set is A. niger. Kind of data set: MIC test, fungal growth inhibition. It counts as cell-based. The note with it: Aspergillus niger, read-out: Potency to inhibit growth, A. niger (MIC). The method, then: as §1, §5, §2, §3, §4
A further data set deals with S. aureus. Put plainly: microbe, parasite or virus in culture. It counts as cell-based. The note with it: Staphylococcus aureus, multiple values = two or more tests; read-out: Minimal Inhibitory Concentration (MIC), S. aureus.
A further data set has as its system S. aureus (MCR). Kind of data set: microbe, parasite or virus in culture. The format is cell-based. The note with it: for MIC: Staphylococcus aureus, read-out: Minimal Inhibitory Concentration (MIC), S. aureus (MCR), multiple values = two or more tests; for Minimal Inhibitory Concentration (MIC), S. aureus (MCR): multiple values = two or more tests.
Data set [1] relates to Bacillus anthracis Sterne 34F2. Put plainly: microbe, parasite or virus in culture. The format is cell-based. The note with it: Bacillus anthracis.
A further data set has as its system M. flavescens. Kind of data set: microbe, parasite or virus in culture. The settings on record: Mycolicibacterium flavescens; read-out: Minimal Inhibitory Concentration (MIC), M. flavescens. The format is cell-based.
The next data set deals with NAD synthetase (Bacillus subtilis, UniProt P08164). Kind of data set: NAD synthetase coupled enzyme assay. It counts as biochemical. The gist of the method: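 NAD formed by B. subtilis NAD synthetase was converted to NADH by coupled alcohol dehydrogenase. NADH was read both by absorbance at 340 nm and by fluorescence (ex 320/em 460 nm). Controls covered inhibitor background, precipitation and ADH inhibition.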
NAD synthetase, sequence (P08164 whole entry): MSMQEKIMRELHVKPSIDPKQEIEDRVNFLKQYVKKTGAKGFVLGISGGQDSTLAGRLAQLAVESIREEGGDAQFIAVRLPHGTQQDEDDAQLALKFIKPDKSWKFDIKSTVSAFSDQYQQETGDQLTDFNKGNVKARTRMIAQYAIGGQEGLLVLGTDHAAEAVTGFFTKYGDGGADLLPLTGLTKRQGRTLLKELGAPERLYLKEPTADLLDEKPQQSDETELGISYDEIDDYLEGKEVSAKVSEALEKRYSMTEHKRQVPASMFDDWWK

A further data set relates to Murine 3T3 cells. Put plainly: Cytotoxicity in murine 3T3 cells (LDH release). The settings on record: at 100 μM, 20 hrs. It counts as cell-based. The method, then: (§6) Prior to conducting the assay, cell number, serum concentration, and medium conditions were optimized. Then using the assay conditions as described below, cells were seeded on day 1 and allowed to adhere for at least 1 hour. […] The initial solubilization of the test articles was in 50:50 methanol:water (v/v). […] On day 1, compounds 1439 and 1364 required sonication before solubility was reached). The cells plus compound were incubated overnight at 37° C., under a 5% CO2/[…] atmosphere. On day 2, the cells in the positive control wells were lysed with 0.9% Triton X-100 for 45 minutes to establish maximum levels of LDH release. The plates were centrifuged at 250× g for 5 minutes, the supernatants transferred to a new assay plate, and the LDH was measured. The assay plates were read at OD 490 nm.
A general note: LDH leaks from cells whose membrane has failed.

Data set [2] concerns rabbit primary renal cells (RPRC). Put plainly: Cytotoxicity in rabbit primary renal cells (annexin V / PI flow cytometry). The format is cell-based. The settings on record: 24 hr, mean ± SEM; for % CELLULAR NECROSIS (RPRC): at 300 μM; for % APOPTOSIS (RPRC): at peak effect (30 μM). The method, then:
Cytotoxicity in Rabbit Primary Renal Cells
Isolation of Proximal Tubules and Culture Conditions
Rabbit renal proximal tubules were isolated using the iron oxide perfusion method and grown in 35-mm tissue culture dishes under improved conditions. The cell culture medium was a 1:1 mixture of DMEM/Ham's F-12 (without D-glucose, phenol red, or sodium pyruvate) supplemented with 15 mM HEPES buffer, 2.5 mM L-gluatmine, 1 μM pyridoxine HCL, 15 mM sodium bicarbonate, and 6 mM lactate. Hydrocortisone (50 nM), selenium (5 ng/mL), human transferrin (5 μg/mL), bovine insulin (10 nM) and L-ascorbic acid-2-phosphate (50 μM) were added to fresh culture medium immediately prior to daily media change.
All numbered compounds were diluted in methanol and the final concentration of methanol in RPRC was less then 0.1% (v/v).
Measurement of RPRC Death
Cell death was monitored in RPRC by assessment of both annexin V and PI staining using flow cytometry. Briefly, RPRC were exposed to the indicated concentrations of compounds for 24 hr. Media was removed and RPRC washed twice with phosphate-buffered saline (PBS) and incubated in a binding buffer (10 mM HEPES, 140 mM NaCL, 5 mM KCL, 1 mM MgCl2, 1.8 mM CaCl2, pH=7.4) containing annexin V-FITC (1 μmol) and PI (25 μg/mL). After a 10 min incubation, RPRC were washed three times in the binding buffer and were released from the monolayers by gentle scrapping with a rubber policeman. Annexin V and PI staining were measured using a BectonDickson FacsCalibur flow cytometer (San Jose, Calif.). An equal number of cells (10,000) were counted for sample and apoptotic cells were defined as those that stained positive for annexin V-FITC only. RPRC undergoing necrotic cell death stained for PI only.
RPRC isolated from one rabbit represented one experiment (n=1). Data were analyzed and are reported as means±standard error of the mean of at least 3 separate experiments.

The nature of data set [3]: Solubilization of test articles in methanol:water. It counts as physicochemical. The settings on record: 50:50 methanol:water (v/v). The method, then:
as §6

The next data set deals with B. subtilis. Kind of data set: microbe, parasite or virus in culture. The settings on record: Bacillus subtilis, multiple values = two or more tests; read-out: Minimal Inhibitory Concentration (MIC), B. subtilis. The format is cell-based.
[4] abbreviates: in vitro, read-out: Potency to inhibit growth, E. coli (MIC).
Where [5] appears, read: STERNE34F2, read-out: approximate MIC, B. anthracis (first value).
Where [6] appears, read: STERNE34F2, read-out: approximate MIC, B. anthracis (second value).

Broadly, the IC50 is the concentration needed to halve the response being measured. In the case of `N=C(N)N[C@@H](Cc1ccccc1)C(=O)NCCCCCCCCOc1ccc(OCc2ccccc2)cc1` [Compound 1503], the MIC with E. coli (setting [4]) is more than 50 µg/mL; in the data set on P aeruginosa (in vitro) it was more than 50 µg/mL; in the data set on C. albicans it was more than 50 µg/mL; in the data set with A. niger (in vitro), more than 50 µg/mL; in the data set with S. aureus it was less than 0.78 µg/mL; with S. aureus (MCR) it was less than 0.78 µg/mL. Also, the MIC in data set [1] (setting [5]) was 8 µg/mL (≈ 15.5 µM); in data set [1] (setting [6]), 16 µg/mL (≈ 31 µM); in the data set on M. flavescens, more than 50 µg/mL. For the same molecule, the “Minimal Inhibitory Concentration (MIC), S. aureus (MCR)” value in the data set on S. aureus (MCR) was less than 1.56 µg/mL. On NAD synthetase, this molecule showed an IC50 of 12.7 µM.

As to `C[N+](C)(C)C(Cc1ccccc1)C(=O)NCCCCCCCCOc1ccc(OCc2ccccc2)cc1` (centres unmarked) [Compound 1364], the MIC with E. coli (read-out: Potency to inhibit growth, E. coli (MIC), in vitro) is less than 50 µg/mL; with P aeruginosa, more than 50 µg/mL; with A. niger, more than 50 µg/mL; in the data set with S. aureus (MCR) it was less than 0.78 µg/mL; with M. flavescens it was more than 50 µg/mL. The “Minimal Inhibitory Concentration (MIC), S. aureus (MCR)” value with S. aureus (MCR) was less than 1.56 µg/mL. For the same molecule, the “% CELLULAR NECROSIS (FIBROBLASTS)” value in the data set with Murine 3T3 cells came out at 62%. In addition, the “% CELLULAR NECROSIS (RPRC)” value in data set [2] came to 63 ± 2%. In addition, in data set [2], the “% APOPTOSIS (RPRC)” value came to 15 ± 3%. For the same molecule, the IC50 against NAD synthetase amounted to 48.4 µM. Also, the “solubility of test article in methanol:water” value in data set [3] is “went into solution on day 1, but precipitated on day 2”.

The melting point is the temperature of the solid-liquid transition. As for `N=C(N)N[C@@H](Cc1ccccc1)C(=O)NCCCCCCCCOc1ccc(OCc2ccccc2)cc1` (as salt: trifluoroacetic acid salt) [Compound 1503], the melting point lay in the range of 108 to 113 °C.

`C[N+](C)(C)[C@H](COCCCCCCCCOc1ccc(OCc2ccccc2)cc1)Cc1ccccc1` [Compound 1439]: the MIC in the data set on E. coli (setting [4]) is less than 12.5 µg/mL; in the data set on P aeruginosa (in vitro), more than 50 µg/mL; in the data set on C. albicans it was less than 3.13 µg/mL; with A. niger (in vitro), less than 25 µg/mL; in the data set with B. subtilis, less than 0.39 µg/mL; with S. aureus, less than 0.78 µg/mL. In addition, the MIC in the data set with S. aureus (MCR) is less than 1.56 µg/mL; in data set [1] (setting [5]), 4 µg/mL; in data set [1] (setting [6]) it was 4 µg/mL; in the data set with M. flavescens, less than 12.5 µg/mL. Besides, the “% CELLULAR NECROSIS (FIBROBLASTS)” value in the data set on Murine 3T3 cells came to 73%. Further, the “% CELLULAR NECROSIS (RPRC)” value in data set [2] was determined as 62 ± 2%. Besides, the “% APOPTOSIS (RPRC)” value in data set [2] is on record as 10 ± 1%. Moreover, inhibition on NAD synthetase was half-maximal at 22.7 µM (IC50). In addition, the “solubility of test article in methanol:water” value in data set [3] was “never went into solution at 50% organic”.
